In ChEMBL document CHEMBL5370554, “Discovery of a first-in-class Aurora A covalent inhibitor for the treatment of triple negative breast cancer” (Eur J Med Chem, 2023):
Calls of active or inactive are those of the source. The calls are words filed in the database; no cut-off is given here.

How the values were obtained:
[1] = Toxicity in BALB/c nude mouse xenografted with human MDA-MB-231 cells assessed as parenchymal injury in lung at 15 mg/kg,ip every 2days for 20 days by Hematoxylin and Eosin staining based microscopy; assay type: organism-based; conditions: in vivo, 480 h, time 20 day
[2] = biological target: T1, Aurora kinase A (Homo sapiens) (UniProt O14965); assay: Covalent irreversible inhibition of recombinant human Aurora A (1 to 403 residues) expressed in Escherichia coli using STK-substrate 2-biotin as substrate at 0.625 to 40 uM incubated upto 120 mins in presence of ATP by HTRF assay; conditions: dose 0.625-40 µM, TDE = time-dependent effect
T1 sequence (whole entry): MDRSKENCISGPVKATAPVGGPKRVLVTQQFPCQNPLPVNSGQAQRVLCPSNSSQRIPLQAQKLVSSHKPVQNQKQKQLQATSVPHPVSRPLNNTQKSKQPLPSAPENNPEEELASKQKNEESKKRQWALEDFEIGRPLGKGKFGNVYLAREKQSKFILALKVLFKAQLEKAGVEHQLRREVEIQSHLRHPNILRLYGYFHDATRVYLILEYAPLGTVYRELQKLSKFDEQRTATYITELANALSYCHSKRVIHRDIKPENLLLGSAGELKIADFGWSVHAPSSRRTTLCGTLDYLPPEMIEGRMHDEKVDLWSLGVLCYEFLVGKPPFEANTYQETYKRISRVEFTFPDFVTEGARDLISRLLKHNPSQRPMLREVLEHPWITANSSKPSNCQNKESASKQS

MDA-MB-231 [3] = assay: Inhibition of cell migration in human MDA-MB-231 cells at 1.25 uM incubated for 18 hrs by Scratch assay (Rvb= 37.2%); assay type: functional
HeLa = assay: Antiproliferative activity against human HeLa cells assessed as inhibition of cell proliferation incubated for 48 hrs by CCK-8 assay; assay type: functional, cell-based
[4] = biological target: T1, Aurora kinase A (Homo sapiens); assay: Covalent binding affinity to recombinant human Aurora A (1 to 403 residues) expressed in Escherichia coli assessed as covalent adduct formation at Cys290 residue at 100 uM incubated for 4 hrs by UPLC-MS/MS analysis
Aurora kinase A [5] = biological target: T2, Aurora kinase A (Homo sapiens, UniProt O14965); assay: Inhibition of recombinant human Aurora A (1 to 403 residues) expressed in Escherichia coli using STK-substrate 2-biotin as substrate incubated for 15 mins in presence of 0.48 uM ATP by HTRF assay
T2 sequence (O14965 whole entry): T1 sequence (whole entry)

Aurora kinase A [6] = biological target: T2, Aurora kinase A; assay: Inhibition of recombinant human Aurora A (1 to 403 residues) expressed in Escherichia coli using STK-substrate 2-biotin as substrate incubated for 40 mins in presence of 0.48 uM ATP by HTRF assay
[7] = Toxicity in BALB/c nude mouse xenografted with human MDA-MB-231 cells assessed as body weight change at 15 mg/kg,ip every 2days for 20 days; assay type: organism-based; conditions: in vivo, 480 h, time 20 day
[8] = Toxicity in BALB/c nude mouse xenografted with human MDA-MB-231 cells assessed as parenchymal injury in kidney at 15 mg/kg,ip every 2days for 20 days by Hematoxylin and Eosin staining based microscopy; assay type: organism-based; conditions: in vivo, 480 h, time 20 day
Aurora kinase A [9] = biological target: T2, Aurora kinase A; assay: Inhibition of recombinant human Aurora A (1 to 403 residues) expressed in Escherichia coli using STK-substrate 2-biotin as substrate incubated for 15 mins in presence of 7.2uM ATP by HTRF assay
SJSA-1 = assay: Antiproliferative activity against human SJSA-1 cells assessed as inhibition of cell proliferation incubated for 48 hrs by CCK-8 assay; assay type: functional, cell-based; conditions: SJSA-1, 48 h
MDA-MB-231 [10] = assay: Induction of apoptosis in human MDA-MB-231 cells assessed as live cells at 2.5 uM incubated for 24 hrs by Annexin V-FITC staining based flow cytometry (Rvb= 88.1%); assay type: functional
[11] = Toxicity in BALB/c nude mouse xenografted with human MDA-MB-231 cells assessed as inflammatory cell infiltration in liver at 15 mg/kg,ip every 2days for 20 days by Hematoxylin and Eosin staining based microscopy; assay type: organism-based; conditions: in vivo, 480 h, time 20 day
MDA-MB-231 [12] = assay: Induction of apoptosis in human MDA-MB-231 cells assessed as early apoptotic cells at 5 uM incubated for 24 hrs by Annexin V-FITC staining based flow cytometry (Rvb= 3.3%); assay type: functional
MDA-MB-231 [13] = assay: Induction of apoptosis in human MDA-MB-231 cells assessed as early apoptotic cells at 2.5 uM incubated for 24 hrs by Annexin V-FITC staining based flow cytometry (Rvb= 3.3%); assay type: functional
[14] = Toxicity in BALB/c nude mouse xenografted with human MDA-MB-231 cells assessed as parenchymal injury in heart at 15 mg/kg,ip every 2days for 20 days by Hematoxylin and Eosin staining based microscopy; assay type: organism-based; conditions: in vivo, 480 h, time 20 day
Aurora kinase A [15] = biological target: T2, Aurora kinase A; assay: Inhibition of recombinant human Aurora A (1 to 403 residues) expressed in Escherichia coli using STK-substrate 2-biotin as substrate incubated for 60 mins in presence of 2.4uM ATP by HTRF assay
Aurora kinase A [16] = biological target: T2, Aurora kinase A; assay: Inhibition of recombinant human Aurora A (1 to 403 residues) expressed in Escherichia coli using STK-substrate 2-biotin as substrate incubated for 60 mins in presence of 24 uM ATP by HTRF assay
Aurora kinase A [17] = biological target: T2, Aurora kinase A; assay: Inhibition of recombinant human Aurora A (1 to 403 residues) expressed in Escherichia coli using STK-substrate 2-biotin as substrate incubated for 15 mins in presence of 2.4uM ATP by HTRF assay
Aurora kinase A [18] = biological target: T2, Aurora kinase A; assay: Inhibition of recombinant human Aurora A (1 to 403 residues) expressed in Escherichia coli using STK-substrate 2-biotin as substrate incubated for 60 mins in presence of 7.2uM ATP by HTRF assay
Mus musculus = assay: In vivo inhibition of Aurora signalling pathway in human MDA-MB-231 cells xenografted in BALB/c nude mouse assessed as decrease in Aurora B phosphorylation at Thr232 residue in tumor at 15 mg/kg,ip every 2days for 20 days by Western blot analysis; assay type: functional, organism-based; conditions: time 20.0 day
MDA-MB-231 [19] = assay: Induction of cell cycle arrest in human MDA-MB-231 cells assessed as accumulation at G2/M phase at 1.25 to 5 uM incubated for 24 hrs by PI staining based flow cytometry; assay type: functional; conditions: dose 1.25-5 µM
[20] = Toxicity in BALB/c nude mouse xenografted with human MDA-MB-231 cells assessed as inflammatory cell infiltration in lung at 15 mg/kg,ip every 2days for 20 days by Hematoxylin and Eosin staining based microscopy; assay type: organism-based; conditions: in vivo, 480 h, time 20 day
[21] = biological target: Aurora kinase B (Homo sapiens) (UniProt Q96GD4); assay: Inhibition of Aurora B in human MDA-MB-231 cells assessed as effect on Aurora B phosphorylation at 0.2 to 0.6 uM incubated for 1 hrs by Western blot analysis; assay type: cell-based; conditions: dose 0.2-0.6 µM
MDA-MB-231 [22] = assay: Induction of cell cycle arrest in human MDA-MB-231 cells assessed as accumulation at G2/M phase at 5 uM incubated for 24 hrs by PI staining based flow cytometry (Rvb=14.0%); assay type: functional
Aurora kinase A [23] = biological target: T2, Aurora kinase A; assay: Inhibition of recombinant human Aurora A (1 to 403 residues) expressed in Escherichia coli using STK-substrate 2-biotin as substrate incubated for 40 mins in presence of 7.2uM ATP by HTRF assay

Chain of Aurora kinase B (Homo sapiens) (Q96GD4 whole entry): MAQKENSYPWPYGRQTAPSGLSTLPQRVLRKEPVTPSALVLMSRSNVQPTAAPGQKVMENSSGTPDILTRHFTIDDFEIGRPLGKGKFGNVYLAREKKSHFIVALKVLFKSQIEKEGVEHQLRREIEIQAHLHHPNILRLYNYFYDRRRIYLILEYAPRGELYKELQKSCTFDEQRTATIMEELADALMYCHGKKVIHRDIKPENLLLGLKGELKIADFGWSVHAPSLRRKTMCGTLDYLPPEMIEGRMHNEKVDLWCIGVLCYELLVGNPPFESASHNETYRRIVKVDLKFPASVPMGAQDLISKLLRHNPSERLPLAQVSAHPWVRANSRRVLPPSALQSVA

C=CC(=O)Nc1ccc(-c2nc(Nc3cc(C)[nH]n3)c3ccc(N4CCN(C)CC4)cc3n2)cc1
Activity [1]: Non-Toxic | inhibition [2]: Tde | inhibition at 1.25 µM (MDA-MB-231 [3]): 3.6% | IC50 (HeLa): 6990 nM | Activity [4]: Active | IC50 (Aurora kinase A [5]): 1.49 nM | IC50 (Aurora kinase A [6]): 1.55 nM | Activity [7]: Non-Toxic | Activity [8]: Non-Toxic | IC50 (Aurora kinase A [9]): 4.36 nM | IC50 (SJSA-1): 4270 nM | Activity (MDA-MB-231 [10]): 60.1% | Activity [11]: Non-Toxic | Activity (MDA-MB-231 [12]): 28.6% | Activity (MDA-MB-231 [13]): 17.7% | Activity [14]: Non-Toxic | IC50 (Aurora kinase A [15]): 3.91 nM | IC50 (Aurora kinase A [16]): 23.3 nM | IC50 (Aurora kinase A [17]): 4.01 nM | IC50 (Aurora kinase A [18]): 8.13 nM | inhibition (Mus musculus): inactive | Activity (MDA-MB-231 [19]): Dose-Dependent Effect | Activity [20]: Non-Toxic | inhibition [21]: inactive | Activity (MDA-MB-231 [22]): 50.8% | IC50 (Aurora kinase A [23]): 5.19 nM
